{
  "source": "paper PMC11637823",
  "about": "“Evaluating the Antimicrobial Efficacy of a Designed Synthetic Peptide against Pathogenic Bacteria” (Journal of Microbiology and Biotechnology, 2024)",
  "key": {"[1]": {"system": "A. baumannii biofilm (IC 003321216)", "test": "Mature biofilm eradication, MTT viability", "settings": "ciprofloxacin alone"}, "[2]": {"system": "Staphylococcus saprophyticus ATCC 29970", "test": "microbe, parasite or virus in culture", "description": "(§1) Clinical and Laboratory Standards Institute (CLSI) guidelines performed the peptide MIC assays. Bacterial colonies were isolated on the Muller Hinton Agar (MHA) and plated at a final concentration of 1.5 × 10^5 CFU/ml.\n(§2) For the results, bacterial growth was determined by visual inspection and confirmed by absorbance measurement at 595 nm after 24 h of incubation using a Multiskan GO microplate reader (Thermo Fisher Scientific, USA). […] The rest of the assay was conducted as previously described.\n(§3) The MBC was determined based on the MIC results. Three replicates of 10 μl were extracted from the microplate wells, placed on MHA, and then kept in an incubator at 37°C for 24 h. […] All experiments were performed in triplicate."}, "[3]": {"system": "Escherichia coli KPC+ 001812446", "test": "microbe, parasite or virus in culture", "description": "as §1, §2, §3"}, "[4]": {"system": "Staphylococcus aureus (MRSA) ATCC 33591", "test": "microbe, parasite or virus in culture", "description": "as §1, §2, §3"}, "[5]": {"system": "Pseudomonas aeruginosa ATCC 27853", "test": "microbe, parasite or virus in culture", "description": "as §1, §2, §3"}, "[6]": {"system": "Staphylococcus aureus (MRSA) ATCC 43300", "test": "microbe, parasite or virus in culture", "description": "as §1, §2, §3"}, "Gram-negative bacteria": {"system": "Gram-negative bacteria", "test": "MIC and MBC assays, span over strains", "format": "cell-based", "description": "as §1, §2, §3"}, "E. coli": {"system": "E. coli", "design": "method as in PMID 16352849", "settings": "cited from earlier work"}, "ESKAPE pathogens": {"system": "ESKAPE pathogens", "settings": "at one-third of the MIC; cited from earlier work", "source_text": "A. baumannii, known for colonising medical equipment surfaces like urinary catheters to form a biofilm, contributes to recurrent and persistent patient infections. WLBU-2, a synthetic cationic peptide, and LL-37, a naturally occurring antimicrobial peptide, underwent testing for efficacy against a range ..."}, "in vitro": {"test": "in vitro", "description": "The mixture was maintained at 30°C. Aliquots of 150 μl were collected after 0, 15, 30, 45, 60, and 120 min, mixed with ten μl of Trifluoroacetic Acid (TFA) and centrifuged at 14 000 rpm at 4°C for 10 min [19]. High-Performance Liquid Chromatography (HPLC) monitored the stability of the peptide using the C-18 reversed-phase hydrophobic column (μ Bondapak C18, 3.9 × 300 mm, Waters, USA) at 25°C. The peptide's remaining percentage during degradation kinetics was calculated by integrating the peak area corresponding to the RK8 peptide, injecting 40 μl of the incubation product in triplicate. The assay was conducted in an Ultimate 3000 chromatograph (Thermo Fisher Scientific). A separation program of 60 min at 1 ml/min was implemented, with monitoring of the 220 and 280 nm wavelengths. Thermo Scientific's ChromeleonTM Chromatography Data System (CDS) 7 software determined the area under the curve."}, "[7]": {"system": "RAW 264.7 murine macrophages", "settings": "64 µM", "experimental": "Cellular viability. RAW 264.7 murine macrophages' cellular viability was evaluated in the presence of the RK8 peptide, according to the method proposed by Mosmann [18], using the enzymatic reduction of the reagent 3-(4,5-dimethylthiazol-2-yl bromide) -2,5-diphenyltetrazolium (MTT).\nAfter detaching from the culture bottle, their density was determined, and they were seeded in a 96-well microplate at a density of 6 × 10^3 cells per well. After being placed in microplates, the cells were incubated for 24 h. The culture medium was replaced with a DMEM culture medium lacking SFB supplementation. Instead, it contained a serial dilution of RK8 ranging from 1 to 64 μM. After 24 h, the medium containing RK8 was removed and replaced with 100 μl of DMEM medium containing MTT 0.5 mg/ml. After four hours of incubation, the medium was removed again, and the reduced formazan crystals were resuspended with the addition of 100 μl of DMSO. Then, the absorbance of the wells was determined at 630 nm in a Varioskan microplate reader (Thermo Fisher Scientific). Three independent experiments were performed in triplicate. Cell viability was calculated from the following formula:\nCell viability (%) = (AbsSample÷AbsNegative control) × 100"}, "human erythrocytes": {"system": "human erythrocytes", "format": "cell-based", "settings": "100 µM", "description": "Hemolytic activity. As hemolysis is an effect widely observed among antimicrobial peptides, we investigated the RK8 peptide hemolytic activity based on the protocol proposed by Uggerhøj et al. using erythrocytes. The blood sample (1 ml) was washed three times with 3 ml of saline solution through centrifugation cycles of 8 min at 1,380 ×g to secure a concentrated solution of erythrocytes. […] The samples were incubated for 60 min at 37°C and sequentially centrifuged for 10 min at 2,455 ×g. Subsequently, 100 μl of the supernatant was transferred to 96-well microplate wells in triplicate. The free haemoglobin content was determined at 414 nm on a Multiskan GO microplate reader (Thermo Fisher Scientific)."}, "[8]": {"system": "Acinetobacter baumannii ATCC 19906", "settings": "ATCC 19906, 24 h", "description": "as §1, §2, §3"}, "[9]": {"system": "Klebsiella pneumoniae ATCC 700603", "settings": "ATCC 700603, 24 h", "description": "as §1, §2, §3"}, "[10]": {"system": "Escherichia coli ATCC 35218", "settings": "ATCC 35218, 24 h", "description": "as §1, §2, §3"}, "[11]": {"system": "Acinetobacter baumannii IC 003321216", "settings": "IC 003321216, 24 h", "description": "as §1, §2, §3"}, "[12]": {"system": "E. coli, P. aeruginosa, and A. baumanii", "settings": "24 h"}, "[13]": {"settings": "Staphylococcus saprophyticus, ATCC29970, 24 h"}},
  "note": "Ends that are not written are not given here.",
  "data": [
    {"compound": "O=C(O)c1cn(C2CC2)c2cc(N3CCNCC3)c(F)cc2c1=O", "note": "[Ciprofloxacin, ciprofloxacin]", "values": [
      {"measurement": "impact on biofilm", "setting": "[1]", "value": "no impact"}
    ]},
    {"compound": "CN[C@H](CC(C)C)C(=O)N[C@H]1C(=O)N[C@@H](CC(N)=O)C(=O)N[C@H]2C(=O)N[C@H]3C(=O)N[C@H](C(=O)N[C@H](C(=O)O)c4cc(O)cc(O)c4-c4cc3ccc4O)[C@H](O)c3ccc(c(Cl)c3)Oc3cc2cc(c3O[C@@H]2O[C@H](CO)[C@@H](O)[C@H](O)[C@H]2O[C@H]2C[C@](C)(N)[C@H](O)[C@H](C)O2)Oc2ccc(cc2Cl)[C@H]1O", "note": "[Vancomycin, vancomycin, reference compound]", "values": [
      {"measurement": "MBC", "setting": "[2]; 10 μl from MIC wells on MHA, 37°C, 24 h, triplicate", "value": "one"},
      {"measurement": "MBC", "setting": "[2]; [13]", "value": 1, "unit": "µM"},
      {"measurement": "MIC", "setting": "[2]; [13]", "value": 0.5, "unit": "µM"},
      {"measurement": "MBC", "setting": "[3]; Escherichia coli, 24 h", "value": 0.5, "unit": "µM"},
      {"measurement": "MIC", "setting": "[3]; Escherichia coli, 24 h", "value": 0.5, "unit": "µM"},
      {"measurement": "MBC", "setting": "[4]; Staphylococcus aureus, 24 h", "value": 1, "unit": "µM"},
      {"measurement": "MBC", "setting": "[5]; Pseudomonas aeruginosa, ATCC27853, 24 h", "value": 1, "unit": "µM"},
      {"measurement": "MBC", "setting": "[6]; Staphylococcus aureus, ATCC43300|MRSA, 24 h, 10 μl from MIC wells on MHA, 37°C, triplicate", "value": 1, "unit": "µM"},
      {"measurement": "MBC", "setting": "Gram-negative bacteria; read-out: MBC values", "value": "0.5 to 4", "unit": "µM"},
      {"measurement": "MIC", "setting": "Gram-negative bacteria; span over Gram-negative strains, 1.5 × 10^5 CFU per ml", "value": "0.5 to 8", "unit": "µM"}
    ]},
    {"compound": "Indolicidin", "values": [
      {"measurement": "MIC", "setting": "E. coli", "value": 10, "unit": "µM"}
    ]},
    {"compound": "LL-37", "values": [
      {"measurement": "inhibition of biofilm formation", "setting": "ESKAPE pathogens", "value": 90, "unit": "%"}
    ]},
    {"compound": "RKWRKWWK [RK8]", "values": [
      {"measurement": "MBC", "setting": "[2]; ATCC 29970, 24 h", "value": 64, "unit": "µM"},
      {"measurement": "MIC", "setting": "[2]; ATCC 29970, 24 h", "value": ">64", "unit": "µM"},
      {"measurement": "MBC", "setting": "[3]; KPC+ 001812446, 24 h", "value": 8, "unit": "µM"},
      {"measurement": "MIC", "setting": "[3]; KPC+ 001812446, 24 h", "value": 16, "unit": "µM"},
      {"measurement": "MBC", "setting": "[4]; ATCC 33591, 24 h", "value": 8, "unit": "µM"},
      {"measurement": "MIC", "setting": "[4]; ATCC 33591, 24 h", "value": 8, "unit": "µM"},
      {"measurement": "MBC", "setting": "[5]; ATCC 27853, 24 h", "value": 64, "unit": "µM"},
      {"measurement": "MBC", "setting": "[6]; ATCC 43300, 24 h", "value": 8, "unit": "µM"},
      {"measurement": "MIC", "setting": "[6]; ATCC 43300, 24 h", "value": 16, "unit": "µM"},
      {"measurement": "decrease in the overall area", "setting": "in vitro; 25% FBS in ultrapure water, 30°C, 120 min, RP-HPLC C18 peak area, triplicate", "value": 40, "unit": "%"},
      {"measurement": "area under the RK8 peak (intact peptide)", "setting": "in vitro; 25% FBS in ultrapure water, 30°C, first 45 min, RP-HPLC C18 peak area, triplicate", "value": "unaffected"},
      {"measurement": "metabolised at 1 h, 0.385 mg/ml", "setting": "in vitro; 25% fetal bovine serum (FBS)", "value": 12.2, "unit": "%"},
      {"measurement": "remaining at 2 h, 0.385 mg/ml", "setting": "in vitro; 25% fetal bovine serum (FBS)", "value": "~60", "unit": "%"},
      {"measurement": "cell viability", "setting": "[7]", "value": 90.1, "unit": "%"},
      {"measurement": "hemolysis", "setting": "human erythrocytes", "value": "approximately 4.6%"},
      {"measurement": "MBC", "setting": "[8]", "value": 4, "unit": "µM"},
      {"measurement": "MIC", "setting": "[8]", "value": ">64", "unit": "µM"},
      {"measurement": "MBC", "setting": "[9]", "value": 64, "unit": "µM"},
      {"measurement": "MIC", "setting": "[9]", "value": ">64", "unit": "µM"},
      {"measurement": "MBC", "setting": "[10]", "value": 2, "unit": "µM"},
      {"measurement": "MIC", "setting": "[10]", "value": ">64", "unit": "µM"},
      {"measurement": "MBC", "setting": "[11]", "value": 4, "unit": "µM"},
      {"measurement": "MIC", "setting": "[11]", "value": 64, "unit": "µM"},
      {"measurement": "concentrations with bactericidal effect (consistent MIC and MBC values)", "setting": "[12]", "value": "0.5 to 4", "unit": "µM"}
    ]}
  ]
}
